According to BindingDB's records for doi:10.1021/jm900681h (Amgen, 2009):

target: Cellular tumor antigen p53 (Homo sapiens, UniProt P04637); test: Induction of p53-Ser15 phosphorylation in human HCT116 cells after 24 hrs
Sequence (P04637 whole entry): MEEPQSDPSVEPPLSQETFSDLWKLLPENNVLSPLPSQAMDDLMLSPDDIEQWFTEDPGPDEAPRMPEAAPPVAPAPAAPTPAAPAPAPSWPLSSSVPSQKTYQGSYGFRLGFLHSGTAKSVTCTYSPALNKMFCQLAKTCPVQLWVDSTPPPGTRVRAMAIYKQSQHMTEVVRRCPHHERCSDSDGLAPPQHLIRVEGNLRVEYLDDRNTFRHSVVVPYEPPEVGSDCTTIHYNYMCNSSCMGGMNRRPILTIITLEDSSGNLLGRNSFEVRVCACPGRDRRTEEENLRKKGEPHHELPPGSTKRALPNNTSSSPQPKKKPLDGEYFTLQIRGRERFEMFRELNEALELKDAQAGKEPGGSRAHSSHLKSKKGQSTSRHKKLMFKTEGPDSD

Compound	IC50
Cc1ccc2c(c1)C1=C(C(c3ccc(Br)cc3)O2)C(c2ccc(Br)cc2)n2ncnc2N1C (configuration not stated)	1 µM

target: not listed separately; test: Induction of p53 in human HCT116 cells coexpressing pp53TA-luc assessed as inhibition of cell proliferation after 8 hrs by firefly/renilla luciferase reporter assay

Compound	IC50
CN1C2=C(C(c3ccc(Cl)cc3)Oc3ccccc32)C(c2ccc(Cl)cc2)n2ncnc21 (racemic) [(+/-)-syn-6,7-Bis(4-chlorophenyl)-12-methyl-7,12-dihydro-6Hchromeno[4,3-d][1,2,4]triazolo[1,5-a]pyrimidine]	9.37 µM
Cc1ccc2c(c1)C1=C(C(c3ccc(Br)cc3)O2)C(c2ccc(Br)cc2)n2ncnc2N1C (configuration not stated)	3 µM
CCOc1cccc2c1C1=C(C(c3ccc(Br)cc3)O2)C(c2ccc(Br)cc2)n2ncnc2N1C (racemic) [(+/-)-syn-6,7-Bis(4-bromophenyl)-1-ethoxy-12-methyl-7,12-dihydro-6H-chromeno[4,3-d][1,2,4]triazolo[1,5-a]pyrimidine]	6.5 µM
CN1C2=C(C(c3ccc(Cl)cc3)Oc3ccccc32)C(c2ccc(Br)cc2)n2ncnc21 (racemic) [(+/-)-syn-7-(4-Bromophenyl)-6-(4-chlorophenyl)-12-methyl-7,12-dihydro-6H-chromeno[4,3-d][1,2,4]triazolo[1,5-a]pyrimidine]	15 µM
CN1C2=C(C(c3ccc(Br)cc3)Oc3ccc(F)cc32)C(c2ccc(Br)cc2)n2ncnc21 (racemic) [(+/-)-syn-6,7-Bis(4-bromophenyl)-2-fluoro-12-methyl-7,12-dihydro-6H-chromeno[4,3-d][1,2,4]triazolo[1,5-a]pyrimidine]	44.3 µM
Cc1cc2c(cc1F)OC(c1ccc(Br)cc1)C1=C2N(C)c2ncnn2C1c1ccc(Br)cc1 (racemic) [(+/-)-syn-6,7-Bis(4-bromophenyl)-3-fluoro-2,12-dimethyl-7,12-dihydro-6H-chromeno[4,3-d][1,2,4]triazolo[1,5-a]pyrimidine]	11.4 µM
